How the values were obtained:
[1] = target: T1, Avi-KRAS G12R (1-169) GppNHp/RAF1 RBD-3xFLAG (52-151) (Homo sapiens, UniProt P01116, G12R); experiment: Raf1-KRAS G12R-GppNHP disruption HTRF assay (Biological Example 1); assay type: binding
T1 construct: Avi-KRAS G12R (1-169)
In short: (§1)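 Protein mix, 1 h RT, 700 rpm; reagent mix, 1 h RT, 700 rpm; HTRF read. Buffer Tris pH 7.5/NaCl/MgCl2/BSA/Tween, 10% DMSO. Output % activity, DMSO = 100%.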

[2] = target: T2, Avi-KRAS G12V (1-169) GppNHp/RAF1 RBD-3xFLAG (52-151) (Homo sapiens, UniProt P01116, G12V); experiment: Raf1-KRAS G12V-GppNHP disruption HTRF assay (Biological Example 1); assay type: binding
T2 construct: Avi-KRAS G12V (1-169)
T2 sequence (P01116 1-169 isoform P01116-2 G12V): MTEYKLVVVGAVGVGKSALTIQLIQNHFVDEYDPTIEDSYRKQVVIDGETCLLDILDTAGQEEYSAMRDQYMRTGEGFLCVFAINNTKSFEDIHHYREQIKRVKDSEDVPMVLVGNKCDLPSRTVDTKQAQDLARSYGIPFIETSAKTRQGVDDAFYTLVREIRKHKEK
In short: as §1

[3] = target: T3, Avi-KRAS G12D (1-169) GppNHp/RAF1 RBD-3xFLAG (52-151) (Homo sapiens, UniProt P01116, G12D); experiment: Raf1-KRAS G12D-GppNHP disruption HTRF assay (Biological Example 1); assay type: binding
T3 construct: Avi-KRAS G12D (1-169)
T3 sequence (P01116 1-169 isoform P01116-2 G12D): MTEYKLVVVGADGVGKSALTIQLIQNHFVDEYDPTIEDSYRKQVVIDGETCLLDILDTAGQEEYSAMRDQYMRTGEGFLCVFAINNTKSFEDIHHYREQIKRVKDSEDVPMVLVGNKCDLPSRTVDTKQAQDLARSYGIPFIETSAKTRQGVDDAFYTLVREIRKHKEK
In short: as §1

[4] = target: T4, Avi-KRAS WT (1-169) GppNHp/RAF1 RBD-3xFLAG (52-151) (Homo sapiens, UniProt P01116); experiment: Raf1-KRAS WT-GppNHP disruption HTRF assay (Biological Example 1); assay type: binding
T4 construct: Avi-KRAS WT (1-169)
T4 sequence (P01116 1-169 isoform P01116-2): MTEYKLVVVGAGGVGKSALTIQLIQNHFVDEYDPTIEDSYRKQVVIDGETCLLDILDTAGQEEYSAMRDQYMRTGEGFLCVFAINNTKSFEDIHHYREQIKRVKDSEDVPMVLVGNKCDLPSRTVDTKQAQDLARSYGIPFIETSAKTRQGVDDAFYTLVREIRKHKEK
In short: as §1

GP2d cells (KRAS G12D) = experiment: Cell-based pERK HTRF assay in GP2d cell (Biological Example 2); conditions: GP2d, GP2d (KRAS G12D) cells, pERK HTRF
In short: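 Phospho-ERK is measured by HTRF following a 60 min compound exposure at 0.25% DMSO, with a 9-point half-log curve topping at 1 μM or 100 nM.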

SW620 cells (KRAS G12V) = experiment: Cell-based pERK HTRF assay in SW620 cell (Biological Example 4); conditions: Homo sapiens, SW-620, SW620 (KRAS G12V) cells, pERK HTRF
In short: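 SW620 (KRAS G12V) cells seeded at 3×10^4/well in RPMI, 10% FBS, then treated next day for 4 h with a 9-point half-log series from 1 μM top (0.25% DMSO). Lysates analyzed for pERK by HTRF (Eu cryptate/d2 antibodies, 4–24 h at room temperature), excitation 320 nm, emission 615 nm.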

[5] = KRAS G12R, GppNHp-loaded, Table 11
[6] = KRAS G12V, GppNHp-loaded, Table 11
[7] = KRAS G12D, GppNHp-loaded, Table 11
[8] = KRAS WT, GppNHp-loaded, Table 11
[9] = KRAS G12R, GppNHp-loaded, class symbols
[10] = KRAS G12V, GppNHp-loaded, class symbols
[11] = KRAS G12D, GppNHp-loaded, class symbols
[12] = KRAS WT, GppNHp-loaded, class symbols

T1 sequence (P01116 1-169 isoform P01116-2 G12R): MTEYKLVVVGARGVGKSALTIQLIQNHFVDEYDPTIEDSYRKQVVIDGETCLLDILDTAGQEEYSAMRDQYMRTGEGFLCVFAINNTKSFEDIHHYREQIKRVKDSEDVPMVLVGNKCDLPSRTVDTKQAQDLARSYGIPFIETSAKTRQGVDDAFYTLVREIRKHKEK

SMILES	IC50 ([1]; KRAS G12R-GppNHp/RAF1 RBD HTRF) [nM]	IC50 ([2]; KRAS G12V-GppNHp/RAF1 RBD HTRF) [nM]	IC50 ([3]; KRAS G12D-GppNHp/RAF1 RBD HTRF) [nM]	IC50 ([4]; KRAS WT-GppNHp/RAF1 RBD HTRF) [nM]	IC50 (GP2d cells (KRAS G12D)) [nM]	IC50 (SW620 cells (KRAS G12V)) [nM]	IC50 [1, 5] [nM]	IC50 [2, 6] [nM]	IC50 [3, 7] [nM]	IC50 [4, 8] [nM]	IC50 [1, 9] [nM]	IC50 [2, 10] [nM]	IC50 [3, 11] [nM]	IC50 [4, 12] [nM]	IC50 (GP2d cells (KRAS G12D); class symbols) [nM]	IC50 (SW620 cells (KRAS G12V); class symbols) [nM]
CN(C)C(=O)c1cnn2c1CN(c1nc(OC[C@@]34CCCN3C[C@H](F)C4)nc3c(F)c(-c4ccc(F)c5sc(N)c(C#N)c45)c(C(F)(F)F)cc13)CC2 [Compound 353]	1000 to 10000	1000 to 10000	100 to 1000	1000 to 10000	< 100	< 100										
CCN(c1nc(OC[C@@]23CCCN2C[C@H](F)C3)nc2c(F)c(-c3ccc(F)c4sc(N)c(C#N)c34)c(C(F)(F)F)cc12)[C@H]1CCN(C(=O)C(C)(C)C)C1 (atropisomer, axis not shown) [Compound 562]	< 100	100 to 1000	< 100	< 100	< 100	< 100										
CN(C)C(=O)c1nc2n(n1)CCN(c1nc(OC[C@@]34CCCN3C[C@H](F)C4)nc3c(F)c(-c4ccc(F)c5sc(N)c(C#N)c45)c(C(F)(F)F)cc13)C2 [Compound 356]	100 to 1000	100 to 1000	< 100	100 to 1000	< 100	< 100										
CC(=O)N1C[C@H](O)[C@@H](N(C)c2nc(OC[C@@]34CCCN3C[C@H](F)C4)nc3c(F)c(-c4ccc(F)c5sc(N)c(C#N)c45)c(C(F)(F)F)cc23)C1 [Compound 347]	100 to 1000	100 to 1000	< 100	100 to 1000	< 100	100 to 1000										
CC(=O)N1CCCN(c2nc(OC[C@@]34CCCN3C[C@H](F)C4)nc3c(F)c(-c4ccc(F)c5sc(N)c(C#N)c45)c(C(F)(F)F)cc23)CC1 [Compound 278]					< 100	< 100	100 to 1000	100 to 1000	100 to 1000	100 to 1000						
CCN(c1nc(OC[C@@]23CCCN2C[C@H](F)C3)nc2c(F)c(-c3ccc(F)c4sc(N)c(C#N)c34)c(C(F)(F)F)cc12)[C@H]1CCN(C(=O)c2cnnn2C)C1 (atropisomer, axis not shown) [Compound 733]											100 to 1000	100 to 1000	< 100	100 to 1000	< 100	< 100
CO[C@@H](C)C(=O)N1CC[C@H](N(c2nc(OC[C@@]34CCCN3C[C@H](F)C4)nc3c(F)c(-c4ccc(F)c5sc(N)c(C#N)c45)c(C(F)(F)F)cc23)C2CC2)C1 (atropisomer, axis not shown) [Compound 811]											100 to 1000	100 to 1000	< 100	100 to 1000	< 100	< 100
C[C@@H]1COC[C@H](C)N1c1nc(OC[C@@]23CCCN2C[C@H](F)C3)nc2c(F)c(-c3ccc(F)c4sc(N)c(C#N)c34)c(C(F)(F)F)cc12 [Compound 201]					< 100	< 100	100 to 1000	100 to 1000	100 to 1000	100 to 1000						
CCN(c1nc(OC[C@@]23CCCN2C[C@H](F)C3)nc2c(F)c(-c3ccc(F)c4sc(N)c(C#N)c34)c(C(F)(F)F)cc12)[C@H]1CCN(C(=O)N(C)C2COC2)C1 (atropisomer, axis not shown) [Compound 598]											< 100	< 100	< 100	< 100	< 100	< 100
N#Cc1c(N)sc2c(F)ccc(-c3c(C(F)(F)F)cc4c(N5C[C@H]6C[C@@H]5[C@@H](O)C6)nc(OC[C@@]56CCCN5C[C@H](F)C6)nc4c3F)c12 [Compound 360]	1000 to 10000	1000 to 10000	1000 to 10000	1000 to 10000	< 100	100 to 1000										
CN(c1nc(OC[C@@]23CCCN2C[C@H](F)C3)nc2c(F)c(-c3ccc(F)c4sc(N)c(C#N)c34)c(C(F)(F)F)cc12)[C@H]1CCCOC1 [Compound 280]	100 to 1000	100 to 1000	100 to 1000	100 to 1000	< 100	< 100										
C[C@@H]1[C@H](N(C)c2nc(OC[C@@]34CCCN3C[C@H](F)C4)nc3c(F)c(-c4ccc(F)c5sc(N)c(C#N)c45)c(C(F)(F)F)cc23)CCN1C(=O)C1(F)CC1 [Compound 425]	100 to 1000	1000 to 10000	100 to 1000	100 to 1000	< 100	< 100										
CCN(c1nc(OC[C@@]23CCCN2C[C@H](F)C3)nc2c(F)c(-c3ccc(F)c4sc(N)c(C#N)c34)c(C(F)(F)F)cc12)[C@@H]1CCN(C(=O)C2CC2)[C@H]1C [Compound 415]	100 to 1000	1000 to 10000	100 to 1000	100 to 1000	< 100	< 100										
COC[C@H]1CN(c2nc(OC[C@@]34CCCN3C[C@H](F)C4)nc3c(F)c(-c4ccc(F)c5sc(N)c(C#N)c45)c(C(F)(F)F)cc23)CCO1 [Compound 283]	100 to 1000	100 to 1000	100 to 1000	100 to 1000	< 100	< 100										
CCN(c1nc(OC[C@@]23CCCN2C[C@H](F)C3)nc2c(F)c(-c3ccc(F)c4sc(N)c(C#N)c34)c(C(F)(F)F)cc12)[C@H]1C[C@H]2CCN(C)C(=O)N2C1 (atropisomer, axis not shown) [Compound 666]											< 100	< 100	< 100	< 100	< 100	< 100
N#Cc1c(N)sc2c(F)ccc(-c3c(C(F)(F)F)cc4c(N5CCc6oncc6C5)nc(OC[C@@]56CCCN5C[C@H](F)C6)nc4c3F)c12 [Compound 507]	100 to 1000	1000 to 10000	100 to 1000	1000 to 10000	< 100	< 100										
CCN(c1nc(OC[C@@]23CCCN2C[C@H](F)C3)nc2c(F)c(-c3ccc(F)c4sc(N)c(C#N)c34)c(C(F)(F)F)cc12)[C@H]1CCN(C(=O)N(C)C(C)C)C1 (atropisomer, axis not shown) [Compound 585]											< 100	< 100	< 100	< 100	< 100	< 100
[2H]C1([2H])CN2C[C@H](F)C[C@]2(COc2nc(N3C[C@H]4C[C@@H]3CO4)c3cc(C(F)(F)F)c(-c4ccc(F)c5sc(N)c(C#N)c45)c(F)c3n2)C1 [Compound 567]											100 to 1000	100 to 1000	100 to 1000	100 to 1000	< 100	< 100
CN(C)C(=O)c1nc2c(s1)CCN(c1nc(OCC34CCCN3CC(F)C4)nc3c(F)c(-c4ccc(F)c5sc(N)c(C#N)c45)c(C(F)(F)F)cc13)C2 (stereo not drawn) [Compound 445]	> 10000	> 10000	1000 to 10000	> 10000	> 1000	100 to 1000										
CC(=O)NCCN(C)c1nc(OC[C@@]23CCCN2C[C@H](F)C3)nc2c(F)c(-c3ccc(F)c4sc(N)c(C#N)c34)c(C(F)(F)F)cc12 [Compound 284]	100 to 1000	100 to 1000	100 to 1000	100 to 1000	< 100	< 100										
CCN(c1nc(OC[C@@]23CCCN2C[C@H](F)C3)nc2c(F)c(-c3ccc(F)c4sc(N)c(C#N)c34)c(C(F)(F)F)cc12)[C@H]1CCN(C(=O)OCC2CC2)C1 (atropisomer, axis not shown) [Compound 620]											< 100	< 100	< 100	100 to 1000	< 100	< 100
